Measurements published in the NIST ThermoML archive (doi:10.1016/j.fluid.2012.08.002).

Assay: xn = mol fraction of the nth substance listed
Details: 101 kPa, Liquid; for speed of sound: Sing-around technique in a fixed-path interferometer; for mass density: Vibrating tube method

CCCCCCn1cc[n+](C)c1.F[B-](F)(F)F [1-hexyl-3-methylimidazolium tetrafluoroborate] + COCCO
Details	mass density [kg/m3]	speed of sound [m/s]
288.15 K, x1 = 0.053	996.474	1409.6
288.15 K, x1 = 0.1088	1021	1431.9
288.15 K, x1 = 0.2016	1052.83	1457.6
288.15 K, x1 = 0.3088	1077.88	1478.5
288.15 K, x1 = 0.4106	1093.47	1491.7
288.15 K, x1 = 0.5023	1103.61	1503.4
288.15 K, x1 = 0.5962	1112.5	1512.3
288.15 K, x1 = 0.7006	1122.49	1520
288.15 K, x1 = 0.7995	1132.99	1529.1
288.15 K, x1 = 0.9099	1145.62	1540
293.15 K, x1 = 0.053	991.791	1392.4
293.15 K, x1 = 0.1088	1016.45	1415.8
293.15 K, x1 = 0.2016	1048.37	1442.3
293.15 K, x1 = 0.3088	1073.64	1463.8
293.15 K, x1 = 0.4106	1089.74	1477.6
293.15 K, x1 = 0.5023	1100.22	1490.1
293.15 K, x1 = 0.5962	1109.27	1499.5
293.15 K, x1 = 0.7006	1119.44	1508.2
293.15 K, x1 = 0.7995	1130.02	1518.1
293.15 K, x1 = 0.9099	1142.38	1527.2
298.15 K, x1 = 0.053	987.817	1375.8
298.15 K, x1 = 0.1088	1012.38	1399.8
298.15 K, x1 = 0.2016	1044.22	1427.1
298.15 K, x1 = 0.3088	1069.47	1449.5
298.15 K, x1 = 0.4106	1085.86	1463.8
298.15 K, x1 = 0.5023	1096.66	1476.9
298.15 K, x1 = 0.5962	1106.01	1487.1
298.15 K, x1 = 0.7006	1116.37	1496.5
298.15 K, x1 = 0.7995	1126.8	1505.8
298.15 K, x1 = 0.9099	1138.92	1514.7
303.15 K, x1 = 0.053	983.383	1359.3
303.15 K, x1 = 0.1088	1008.21	1384
303.15 K, x1 = 0.2016	1040.16	1411.9
303.15 K, x1 = 0.3088	1065.51	1435.5
303.15 K, x1 = 0.4106	1081.93	1450.1
303.15 K, x1 = 0.5023	1092.85	1463.9
303.15 K, x1 = 0.5962	1102.49	1474.7
303.15 K, x1 = 0.7006	1113.08	1484.5
303.15 K, x1 = 0.7995	1123.59	1493.6
303.15 K, x1 = 0.9099	1135.86	1502.4
308.15 K, x1 = 0.053	979.101	1342.8
308.15 K, x1 = 0.1088	1004.1	1368.2
308.15 K, x1 = 0.2016	1036.07	1397
308.15 K, x1 = 0.3088	1061.47	1421.5
308.15 K, x1 = 0.4106	1077.94	1436.9
308.15 K, x1 = 0.5023	1089.12	1451
308.15 K, x1 = 0.5962	1098.81	1462.2
308.15 K, x1 = 0.7006	1109.56	1472.2
308.15 K, x1 = 0.7995	1120.09	1481.5
308.15 K, x1 = 0.9099	1132.31	1490.3
313.15 K, x1 = 0.053	974.997	1326.5
313.15 K, x1 = 0.1088	999.809	1352.3
313.15 K, x1 = 0.2016	1031.82	1382.1
313.15 K, x1 = 0.3088	1057.43	1407.4
313.15 K, x1 = 0.4106	1073.99	1424.1
313.15 K, x1 = 0.5023	1085.32	1438.4
313.15 K, x1 = 0.5962	1095.09	1449.7
313.15 K, x1 = 0.7006	1105.89	1460.1
313.15 K, x1 = 0.7995	1116.48	1469.5
313.15 K, x1 = 0.9099	1128.74	1478.5
318.15 K, x1 = 0.053	970.346	1309.8
318.15 K, x1 = 0.1088	995.598	1336.2
318.15 K, x1 = 0.2016	1027.87	1367.3
318.15 K, x1 = 0.3088	1053.41	1393.3
318.15 K, x1 = 0.4106	1070.02	1411.6
318.15 K, x1 = 0.5023	1080.99	1425.6
318.15 K, x1 = 0.5962	1090.77	1437.4
318.15 K, x1 = 0.7006	1101.5	1448.2
318.15 K, x1 = 0.7995	1112.28	1457.7
318.15 K, x1 = 0.9099	1124.84	1466.9

CCCCCCn1cc[n+](C)c1.[Br-] [3-hexyl-1-methyl-1H-imidazolium bromide] + COCCO
Details	mass density [kg/m3]	speed of sound [m/s]
288.15 K, x1 = 0.0541	1003.16	1406.2
288.15 K, x1 = 0.1114	1033.95	1427.1
288.15 K, x1 = 0.2063	1075.85	1455
288.15 K, x1 = 0.3163	1113.65	1481.2
288.15 K, x1 = 0.399	1136.61	1498.5
288.15 K, x1 = 0.5066	1160.88	1518.9
288.15 K, x1 = 0.5919	1177.15	1532.1
288.15 K, x1 = 0.7003	1194.68	1550.1
288.15 K, x1 = 0.8193	1210.88	1578.5
288.15 K, x1 = 0.905	1221.01	1610.1
293.15 K, x1 = 0.0541	998.827	1389.9
293.15 K, x1 = 0.1114	1029.8	1411.5
293.15 K, x1 = 0.2063	1071.89	1440.2
293.15 K, x1 = 0.3163	1109.92	1467.3
293.15 K, x1 = 0.399	1132.93	1485.4
293.15 K, x1 = 0.5066	1157.28	1506
293.15 K, x1 = 0.5919	1173.58	1519.1
293.15 K, x1 = 0.7003	1191.1	1535.7
293.15 K, x1 = 0.8193	1207.23	1560
293.15 K, x1 = 0.905	1217.37	1584.7
298.15 K, x1 = 0.0541	994.442	1373.6
298.15 K, x1 = 0.1114	1025.66	1395.9
298.15 K, x1 = 0.2063	1067.99	1425.3
298.15 K, x1 = 0.3163	1106.17	1454
298.15 K, x1 = 0.399	1129.03	1472.5
298.15 K, x1 = 0.5066	1153.7	1493.4
298.15 K, x1 = 0.5919	1169.99	1506.4
298.15 K, x1 = 0.7003	1187.69	1521.9
298.15 K, x1 = 0.8193	1203.66	1543.4
298.15 K, x1 = 0.905	1213.6	1563.8
303.15 K, x1 = 0.0541	990.104	1357.4
303.15 K, x1 = 0.1114	1021.6	1380.5
303.15 K, x1 = 0.2063	1064.1	1410.7
303.15 K, x1 = 0.3163	1102.4	1440.7
303.15 K, x1 = 0.399	1125.44	1459.6
303.15 K, x1 = 0.5066	1150.12	1481
303.15 K, x1 = 0.5919	1166.5	1494.1
303.15 K, x1 = 0.7003	1184.24	1509.1
303.15 K, x1 = 0.8193	1200.22	1528.5
303.15 K, x1 = 0.905	1210.1	1545.7
308.15 K, x1 = 0.0541	985.747	1341.1
308.15 K, x1 = 0.1114	1017.43	1365.1
308.15 K, x1 = 0.2063	1060.19	1396.3
308.15 K, x1 = 0.3163	1098.64	1427.5
308.15 K, x1 = 0.399	1121.85	1446.7
308.15 K, x1 = 0.5066	1146.54	1468.7
308.15 K, x1 = 0.5919	1162.92	1482
308.15 K, x1 = 0.7003	1180.7	1496.7
308.15 K, x1 = 0.8193	1196.79	1514.7
308.15 K, x1 = 0.905	1206.71	1529.7
313.15 K, x1 = 0.0541	981.397	1324.9
313.15 K, x1 = 0.1114	1013.1	1349.9
313.15 K, x1 = 0.2063	1056.1	1382.4
313.15 K, x1 = 0.3163	1094.88	1414.3
313.15 K, x1 = 0.399	1118.18	1433.9
313.15 K, x1 = 0.5066	1142.96	1456.5
313.15 K, x1 = 0.5919	1159.44	1470.3
313.15 K, x1 = 0.7003	1177.16	1484.8
313.15 K, x1 = 0.8193	1193.35	1501.8
313.15 K, x1 = 0.905	1203.34	1515.2
318.15 K, x1 = 0.0541	976.988	1308.7
318.15 K, x1 = 0.1114	1009.12	1335.8
318.15 K, x1 = 0.2063	1052.25	1369.4
318.15 K, x1 = 0.3163	1091.12	1401.5
318.15 K, x1 = 0.399	1114.51	1421.1
318.15 K, x1 = 0.5066	1139.37	1444.5
318.15 K, x1 = 0.5919	1155.95	1458.7
318.15 K, x1 = 0.7003	1173.69	1473.2
318.15 K, x1 = 0.8193	1189.89	1489.7
318.15 K, x1 = 0.905	1199.95	1501.9
